Key:
[1] = tested on: tomato spotted wilt virus; experiment: Induced resistance of tobacco to tomato spotted wilt virus infection; format: in vivo, Nicotiana benthamiana; conditions: for viral protein content: leaves 3 days after inoculation, Western blot grey scale
Procedure: Tomato spotted wilt virus was obtained from Yunnan Province, China. The initial virus source was stored in a refrigerator at −80° C., and inoculated on the leaves of Nicotiana benthamiana using friction inoculation method to activate the virus. The virus plasmids were extracted and transformed with competent cells of Escherichia coli. The competent cells were coated on a resistant plate for culture. Single colonies were picked for PCR screening, and positive colonies were selected for sequencing and subsequent plasmid extraction. The plasmids with normal sequencing results were added to competent cells of Agrobacterium sp, and Agrobacterium was transformated by electroporation. A solution of the transformed Agrobacterium was coated on the corresponding resistant screening plate, and cultured at 28° C. (+1° C.) for 48 h. Single colonies of the Agrobacterium on transformation plate were picked, placed in 5 mL of LB medium with the corresponding resistance, and cultured overnight at 28° C., 180 rpm. The bacterial cells were collected by centrifugation at 6,000 rpm for 2 min, suspended with a treatment solution (10 mM MgCl2, 10 mM MES, and 10 μM Acetosyringone) until the OD600 value of the suspension was 0.5. The suspension was treated at 28° C. in the dark for 3 hours for later use. 2-amino-3-phenylbutyric acid was dissolved in distilled water and then gradiently diluted with distilled water into solutions of 0 nM, 0.1 nM, 1 nM, and 10 nM. Nicotiana benthamiana seeds were planted in small pots and incubated at 22° C. (+1° C.), 12 h/12 h light for 5 weeks. Healthy tobacco plants (preferably with 8-10 leaves) were selected and treated with the 2-amino-3-phenylbutyric acid solutions of the above concentrations by spraying on the stems and leaves, and repeated the treatment at 24-hour intervals for a total of two treatments. After 24 hours, a uniform concentration of Agrobacterium solution was extracted with a 1 mL syringe, the injection port of the syringe was pressed directly on the small hole on the back of the tobacco leaf, and the bacterial solution was slowly pushed in order to infiltrate soak the entire leaf. The infiltrated tobacco was moved to an environment of 24° C. (+1° C.), 12 h/12 h light for incubation. After 3 days, microscopic observation was performed and recorded. At the same time, the samples were taken, and the gray scale of protein bands was analyzed by Western blot combined with Image J software to determine the relative protein content of virus in leaves. After 15 days, the disease of tobacco leaves was observed and the disease index was recorded with reference to “grade and investigation method of tobacco diseases and insect pests” (GB/T 23222-2008) with the following formulas: […]
Grading standard of Tomato spotted wilt virus disease (grading and investigation were conducted per plant): • Grade 0: the whole plant is disease free; • Grade 1: heart leaves have clear veins or slightly mosaic, and there is no obvious dwarfing of diseased plants; • Grade 3: one-third of the leaves are mosaic without deformation, or the diseased plant is dwarfed to three quarters or more of the normal plant height; • Grade 5: one-third to one-half of the leaves are mosaic, or a few leaves are deformed, or the main veins become black, or the diseased plant is dwarfed to two-thirds to three-quarters of the normal plant height; • Grade 7: one-half to two-thirds of the leaves are mosaic or deformed, or a few main and lateral veins become necrotic, or the diseased plant is dwarfed to one-half to two-thirds of the normal plant height; • Grade 9: the leaves of the whole plant are mosaic, severely deformed or necrotic, or the diseased plant is dwarfed to one-half or […] of the normal plant height.

tea seedlings (Baiye 1) = experiment: Induced resistance of tea tree to low temperature stress; format: in vivo; conditions: for PIABS (photosynthetic performance index): after −4° C. for 24 h; for cold injury index (%): −4° C. 24 h, 3 days recovery
Procedure: The tea tree tested was cutting seedling of Baiye 1. Tea seedlings with consistent growth were selected and transplanted into plastic pots with a diameter of 18 cm and placed in a greenhouse with a temperature of 25° C. and a humidity of 60%-70% for adaptive growth for about a week for the experiment. The concentrations used in this experiment were 0, 100, 1,000, and 10,000 nM, and 0.02% Tween 20 was added as surfactant, where the spray treatment method was the same as that of Arabidopsis thaliana in Example 1, the duration of low temperature stress was 24 hours, and the temperature was set to −4° C. After the stress was completed, the tea seedlings were removed and after 30 min of dark treatment at room temperature, the chlorophyll fluorescence of the top leaves of the tea seedlings was measured with Plant Efficiency Handy PEA. The tea seedlings were then placed in a greenhouse at 25° C. for 3 days for recovery. Then the condition of cold injury was observed and graded, where the grading standard of cold injury is shown Table 12, the formula for calculating the cold injury index is as follows.
The concentrations of 2,6-diamino-3-methylhexanoic acid used in the trail were 0, 1, 10, 100, and 1,000 nM, and 0.02% Tween 20 was added as surfactant. The effect of 2,6-diamino-3-methylhexanoic acid to induce the resistance of tea to low-temperature stress was investigated according to the method as described above.

wheat = experiment: Induced resistance of wheat to drought stress (25% PEG-6000); format: in vivo; conditions: for drought injury index (%) / dry weight (g) aboveground part / dry weight (g) underground part / fresh weight (g) aboveground part / fresh weight (g) underground part / length of root (cm): 6 days drought stress, 7 days recovery
Procedure: Wheat was hydroponic cultured in a 6-mesh sieve used as a container at 50 grains per sieve, and ½ Hoagland nutrient solution was changed every three days. When the wheat grew to the stage of two leaves and one bud, 2-amino-3-phenylbutyric acid solution was sprayed on the leaf surface, and the concentration of 2-amino-3-phenylbutyric acid was 0, 100 and 1,000 nM, and 0.02% Tween 20 was added as surfactant. After two days of continuous spraying, the hydroponic nutrient solution was replaced with ½ Hoagland nutrient solution containing 25% PEG-6000 on the 3rd day for stress treatment. After 6 days of drought stress, rehydration treatment was conducted. And after 7 days of recovery growth in normal nutrient solution, the drought injury index was observed and determined, and the root length and biomass were determined.
The performance characteristics of drought injury of leaves are similar to those of salt injury. The rate of drought injury and the drought injury index are introduced by using the evaluation indexes of salt injury. The formula for calculating the drought injury index is as follows, and the grading standard of drought injury is shown in Table 15.

[2] = 0.1 nM spray, 15 days after inoculation
[3] = 1 nM spray, 15 days after inoculation
[4] = each treatment in the range 0.1-10 nM

Row | SMILES | relative immunization effect (%) ([1]; 0.1 nM) | disease index [1, 2] [b] | viral protein content ([1]; 0.1 nM) [b] | relative immunization effect (%) ([1]; 1 nM) | disease index [1, 3] [c] | viral protein content ([1]; 1 nM) [c] | relative immunization effect (%) ([1]; 10 nM) | disease index [1, 4] | relative immune effect [1, 4] [%] | PIABS (photosynthetic performance index) (tea seedlings (Baiye 1); 100 nM) | cold injury index (%) (tea seedlings (Baiye 1); 100 nM) | PIABS (photosynthetic performance index) (tea seedlings (Baiye 1); 1,000 nM) | cold injury index (%) (tea seedlings (Baiye 1); 1,000 nM) | drought injury index (%) (wheat; 100 nM) | dry weight (g) aboveground part (wheat; 100 nM) [b g] | dry weight (g) underground part (wheat; 100 nM) [b g] | fresh weight (g) aboveground part (wheat; 100 nM) [b g] | fresh weight (g) underground part (wheat; 100 nM) [b g] | length of root (cm) (wheat; 100 nM) | decrease of drought injury index (wheat; 1,000 nM) [%] | also measured
1 | CC(CCCN)C(N)C(=O)O (centres unmarked) [2,6-diamino-3-methylhexanoic acid] | 53.08 | 42.64 ± 1.25 | 0.41 ± 0.005 | 63.72 | 32.97 ± 1.26 | 0.23 ± 0.002 | 70.94 | lower than 50 | ≥ 50 | 37.41 ± 0.14 b | 33 | 40.14 ± 0.15 a | 26 | 40 | 0.94 ± 0.01 | 0.42 ± 0.01 | 7.70 ± 0.02 | 3.79 ± 0.01 | 14.35 ± 0.08 b cm | 59 | PIABS (photosynthetic performance index) (tea seedlings (Baiye 1); 1 nM): 25.53 ± 0.09; cold injury index (%) (tea seedlings (Baiye 1); 1 nM): 46%; PIABS (photosynthetic performance index) (tea seedlings (Baiye 1); 10 nM): 32.44 ± 1.51 c; cold injury index (%) (tea seedlings (Baiye 1); 10 nM): 42%; decrease of cold injury index (tea seedlings (Baiye 1); 1,000 nM): 45%; increase of PIABS (tea seedlings (Baiye 1); 1,000 nM): 121%; increase of fresh weight of aboveground part compared with the control group (wheat; 1,000 nM): 31.03%; increase of fresh weight of underground part compared with the control group (wheat; 1,000 nM): 34.42%; increase of root length compared with the control group (wheat; 1,000 nM): 9.77%; drought injury index (%) (wheat; 1,000 nM): 21%; dry weight (g) aboveground part (wheat; 1,000 nM): 1.05 ± 0.01 a g; dry weight (g) underground part (wheat; 1,000 nM): 0.49 ± 0.01 a g; fresh weight (g) aboveground part (wheat; 1,000 nM): 8.99 ± 0.01 a g; fresh weight (g) underground part (wheat; 1,000 nM): 4.59 ± 0.03 a g; length of root (cm) (wheat; 1,000 nM): 14.63 ± 0.12 a cm
2 | CC(c1ccccc1)C(N)C(=O)O (centres unmarked) [2-amino-3-phenylbutyric acid] | 35.77 | 48.77 ± 0.87 | 0.33 ± 0.003 | 60.98 | 29.63 ± 1.51 | 0.14 ± 0.008 | 69.23 | lower than 50 | ≥ 35 | 21.83 ± 1.73 bc | 66.33 | 33.67 ± 3.27 b | 45 | 46 | 0.87 ± 0.01 | 0.38 ± 0.01 | 7.51 ± 0.24 | 3.77 ± 0.23 | 14.23 ± 0.12 a cm | 46 | decrease of cold injury index (tea seedlings (Baiye 1); 10,000 nM): 35%; increase of PIABS (tea seedlings (Baiye 1); 10,000 nM): 147%; PIABS (photosynthetic performance index) (tea seedlings (Baiye 1); 10,000 nM): 42.36 ± 3.51 a; cold injury index (%) (tea seedlings (Baiye 1); 10,000 nM): 40%; increase of fresh weight of aboveground part compared with the control group (wheat; 1,000 nM): 46.33%; increase of fresh weight of underground part compared with the control group (wheat; 1,000 nM): 55.14%; increase of root length compared with the control group (wheat; 1,000 nM): 11.87%; drought injury index (%) (wheat; 1,000 nM): 27%; dry weight (g) aboveground part (wheat; 1,000 nM): 0.94 ± 0.05 a g; dry weight (g) underground part (wheat; 1,000 nM): 0.43 ± 0.02 a g; fresh weight (g) aboveground part (wheat; 1,000 nM): 8.97 ± 0.32 a g; fresh weight (g) underground part (wheat; 1,000 nM): 4.53 ± 0.01 a g; length of root (cm) (wheat; 1,000 nM): 14.70 ± 0.37 a cm

Reference: patent US20250127165A1, “USE OF 2-AMINO-3-PHENYLBUTYRIC ACID OR 2,6-DIAMINO-3-METHYLHEXANOIC ACID AS PLANT IMMUNE RESISTANCE INDUCER” (NANJING TIANNONG BIOTECHNOLOGY CO., LTD., priority 2021, published 2025)
